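Cultured in 96-well plates, cells were exposed to test compound for 48 hours across five concentrations. GI50 = concentration required for 50% inhibition of growth. Definition used: TGI = concentration required for complete inhibition of growth.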
Columns and labels:
Assay in all cases: NCI anticancer screen, dose series, 48 h
786-0 renal = system: 786-0 renal
A498 renal = system: A498 renal
A549 NSCLC = system: A549 NSCLC
ACHN renal = system: ACHN renal
BT-549 breast = system: BT-549 breast
CCRF-CEM leukemia = system: CCRF-CEM leukemia
COLO 205 colon = system: COLO 205 colon
DU-145 prostate = system: DU-145 prostate
HCC-2998 colon = system: HCC-2998 colon
HCT-116 colon = system: HCT-116 colon
HCT-15 colon = system: HCT-15 colon
HL-60(TB) leukemia = system: HL-60(TB) leukemia
HOP-62 NSCLC = system: HOP-62 NSCLC
HOP-92 NSCLC = system: HOP-92 NSCLC
HS 578T breast = system: HS 578T breast
HT29 colon = system: HT29 colon
IGROV1 ovarian = system: IGROV1 ovarian
K-562 leukemia = system: K-562 leukemia
KM12 colon = system: KM12 colon
LOX IMVI melanoma = system: LOX IMVI melanoma
M14 melanoma = system: M14 melanoma
MALME-3M melanoma = system: MALME-3M melanoma
MCF7 breast = system: MCF7 breast
MDA-MB-231 breast = system: MDA-MB-231 breast
MDA-MB-435 = system: MDA-MB-435
MOLT-4 leukemia = system: MOLT-4 leukemia
NCI-H226 lung = system: NCI-H226 lung
NCI-H23 lung = system: NCI-H23 lung
NCI-H460 lung = system: NCI-H460 lung
NCI-H522 lung = system: NCI-H522 lung
NCI/ADR-RES ovarian = system: NCI/ADR-RES ovarian
OVCAR-3 ovarian = system: OVCAR-3 ovarian
OVCAR-4 ovarian = system: OVCAR-4 ovarian
OVCAR-5 ovarian = system: OVCAR-5 ovarian
OVCAR-8 ovarian = system: OVCAR-8 ovarian
PC-3 prostate = system: PC-3 prostate
RPMI-8226 leukemia = system: RPMI-8226 leukemia
RXF 393 renal = system: RXF 393 renal
SF-268 CNS = system: SF-268 CNS
SF-295 CNS = system: SF-295 CNS
SF-539 CNS = system: SF-539 CNS
SK-MEL-2 melanoma = system: SK-MEL-2 melanoma
SK-MEL-28 melanoma = system: SK-MEL-28 melanoma
SK-MEL-5 melanoma = system: SK-MEL-5 melanoma
SK-OV-3 ovarian = system: SK-OV-3 ovarian
SN12C renal = system: SN12C renal
SNB-19 CNS = system: SNB-19 CNS
SNB-75 CNS = system: SNB-75 CNS
SR leukemia = system: SR leukemia
SW-620 colon = system: SW-620 colon
T-47D breast = system: T-47D breast
TK-10 renal = system: TK-10 renal
U251 CNS = system: U251 CNS
UACC-257 melanoma = system: UACC-257 melanoma
UACC-62 melanoma = system: UACC-62 melanoma
UO-31 renal = system: UO-31 renal

`CC(C)CNC(=O)c1ccc(NC(=O)N(CC(C)C)C(=O)c2ccc(N)c(OCCCN)c2)c(OCCCN=C(N)N)c1` gave a GI50 (786-0 renal) of over 62.5 µM, a TGI (786-0 renal) of over 62.5 µM and a GI50 (A498 renal) of over 62.5 µM. For the same compound, the TGI (A498 renal) was over 62.5 µM, the GI50 (A549 NSCLC) was over 62.5 µM and the TGI (A549 NSCLC) was over 62.5 µM. For the same compound, the GI50 (ACHN renal) was over 62.5 µM, the TGI (ACHN renal) was over 62.5 µM and the GI50 (BT-549 breast) was over 62.5 µM. The TGI (BT-549 breast) was over 62.5 µM, the GI50 (CCRF-CEM leukemia) was over 62.5 µM and the TGI (CCRF-CEM leukemia) was over 62.5 µM. For the same compound, the GI50 (COLO 205 colon) was over 62.5 µM, the TGI (COLO 205 colon) was over 62.5 µM and the GI50 (DU-145 prostate) was over 62.5 µM. The TGI (DU-145 prostate) was over 62.5 µM, the GI50 (HCC-2998 colon) was over 62.5 µM and the TGI (HCC-2998 colon) was over 62.5 µM. The GI50 (HCT-116 colon) was over 62.5 µM, the TGI (HCT-116 colon) was over 62.5 µM and the GI50 (HCT-15 colon) was over 62.5 µM. It also gave a TGI (HCT-15 colon) of over 62.5 µM, a GI50 (HL-60(TB) leukemia) of over 62.5 µM and a TGI (HL-60(TB) leukemia) of over 62.5 µM. The GI50 (HOP-62 NSCLC) was over 62.5 µM, the TGI (HOP-62 NSCLC) was over 62.5 µM and the GI50 (HOP-92 NSCLC) was over 62.5 µM. For the same compound, the TGI (HOP-92 NSCLC) was over 62.5 µM, the GI50 (HS 578T breast) was over 62.5 µM and the TGI (HS 578T breast) was over 62.5 µM. For the same compound, the GI50 (HT29 colon) was over 62.5 µM, the TGI (HT29 colon) was over 62.5 µM and the GI50 (IGROV1 ovarian) was over 62.5 µM. The TGI (IGROV1 ovarian) was over 62.5 µM, the GI50 (K-562 leukemia) was over 62.5 µM and the TGI (K-562 leukemia) was over 62.5 µM. It also gave a GI50 (KM12 colon) of over 62.5 µM, a TGI (KM12 colon) of over 62.5 µM and a GI50 (LOX IMVI melanoma) of over 62.5 µM. It also gave a TGI (LOX IMVI melanoma) of over 62.5 µM, a GI50 (M14 melanoma) of over 62.5 µM and a TGI (M14 melanoma) of over 62.5 µM. It also gave a GI50 (MALME-3M melanoma) of over 62.5 µM, a TGI (MALME-3M melanoma) of over 62.5 µM and a GI50 (MCF7 breast) of over 62.5 µM. For the same compound, the TGI (MCF7 breast) was over 62.5 µM, the GI50 (MDA-MB-231 breast) was over 62.5 µM and the TGI (MDA-MB-231 breast) was over 62.5 µM. It also gave a GI50 (MDA-MB-435) of over 62.5 µM, a TGI (MDA-MB-435) of over 62.5 µM and a GI50 (MOLT-4 leukemia) of over 62.5 µM. The TGI (MOLT-4 leukemia) was over 62.5 µM, the GI50 (NCI-H226 lung) was over 62.5 µM and the TGI (NCI-H226 lung) was over 62.5 µM. For the same compound, the GI50 (NCI-H23 lung) was over 62.5 µM, the TGI (NCI-H23 lung) was over 62.5 µM and the GI50 (NCI-H460 lung) was over 62.5 µM. It also gave a TGI (NCI-H460 lung) of over 62.5 µM, a GI50 (NCI-H522 lung) of over 62.5 µM and a TGI (NCI-H522 lung) of over 62.5 µM. For the same compound, the GI50 (NCI/ADR-RES ovarian) was over 62.5 µM, the TGI (NCI/ADR-RES ovarian) was over 62.5 µM and the GI50 (OVCAR-3 ovarian) was over 62.5 µM. The TGI (OVCAR-3 ovarian) was over 62.5 µM, the GI50 (OVCAR-4 ovarian) was over 62.5 µM and the TGI (OVCAR-4 ovarian) was over 62.5 µM. For the same compound, the GI50 (OVCAR-5 ovarian) was over 62.5 µM, the TGI (OVCAR-5 ovarian) was over 62.5 µM and the GI50 (OVCAR-8 ovarian) was over 62.5 µM. It also gave a TGI (OVCAR-8 ovarian) of over 62.5 µM, a GI50 (PC-3 prostate) of over 62.5 µM and a TGI (PC-3 prostate) of over 62.5 µM. For the same compound, the GI50 (RPMI-8226 leukemia) was over 62.5 µM, the TGI (RPMI-8226 leukemia) was over 62.5 µM and the GI50 (RXF 393 renal) was over 62.5 µM. The TGI (RXF 393 renal) was over 62.5 µM, the GI50 (SF-268 CNS) was over 62.5 µM and the TGI (SF-268 CNS) was over 62.5 µM. It also gave a GI50 (SF-295 CNS) of over 62.5 µM, a TGI (SF-295 CNS) of over 62.5 µM and a GI50 (SF-539 CNS) of over 62.5 µM. The TGI (SF-539 CNS) was over 62.5 µM, the GI50 (SK-MEL-2 melanoma) was over 62.5 µM and the TGI (SK-MEL-2 melanoma) was over 62.5 µM. The GI50 (SK-MEL-28 melanoma) was over 62.5 µM, the TGI (SK-MEL-28 melanoma) was over 62.5 µM and the GI50 (SK-MEL-5 melanoma) was over 62.5 µM. For the same compound, the TGI (SK-MEL-5 melanoma) was over 62.5 µM, the GI50 (SK-OV-3 ovarian) was over 62.5 µM and the TGI (SK-OV-3 ovarian) was over 62.5 µM. It also gave a GI50 (SN12C renal) of over 62.5 µM, a TGI (SN12C renal) of over 62.5 µM and a GI50 (SNB-19 CNS) of over 62.5 µM. It also gave a TGI (SNB-19 CNS) of over 62.5 µM, a GI50 (SNB-75 CNS) of over 62.5 µM and a TGI (SNB-75 CNS) of over 62.5 µM. It also gave a GI50 (SR leukemia) of over 62.5 µM, a TGI (SR leukemia) of over 62.5 µM and a GI50 (SW-620 colon) of over 62.5 µM. The TGI (SW-620 colon) was over 62.5 µM, the GI50 (T-47D breast) was over 62.5 µM and the TGI (T-47D breast) was over 62.5 µM. For the same compound, the GI50 (TK-10 renal) was over 62.5 µM, the TGI (TK-10 renal) was over 62.5 µM and the GI50 (U251 CNS) was over 62.5 µM. It also gave a TGI (U251 CNS) of over 62.5 µM, a GI50 (UACC-257 melanoma) of over 62.5 µM and a TGI (UACC-257 melanoma) of over 62.5 µM. It also gave a GI50 (UACC-62 melanoma) of over 62.5 µM, a TGI (UACC-62 melanoma) of over 62.5 µM and a GI50 (UO-31 renal) of over 62.5 µM. The TGI (UO-31 renal) was over 62.5 µM.

Reference: PubChem BioAssay (NCI)
